Assay results reported in patent US20100227923A1, “PREVENTIVE/REMEDY FOR URINARY CALCULOSIS” (GODO SHUSEI CO., LTD., priority 2006, published 2010).
Like-named read-outs stand apart in the source and are kept apart here.

Legend:
[1] = Non-Patent Documents 4 to 6; cited from earlier work
[2] = Non-Patent Documents 4 to 6; cited from earlier work; remark: listed apart in the source
[3] = tested on: mice; experiment: Single-dose peroral safety experiment of mice (LD50); format: in vivo
[4] = Percent urine excretion (24 hours) of rats after intravenous administration; format: in vivo, Wistar rats; conditions: for Percent urine excretion (24 hours): rats, 0.5 mmol/kg i.v., av. ± standard error
Description: (§1) The percent urine excretion (24 hours) was determined in the following manner. To each of the 5- to 6-week-old male Wistar rats which had been fasted overnight, sodium L-arabonate (0.5 mmol/kg) was administered through the tail vein. The rats were placed in a metabolic cage where urine was collected for 24 hours. After removal of protein from the blood samples and urine samples, the blood L-arabonic acid level of each sample was determined through HPLC. Instead of L-arabonic acid, sodium D-gluconate was administered to the rats of the control group. The blood sodium D-gluconate level was determined by means of an F-kit (product of Roche Diagnostic).

[5] = Blood level of rats after intravenous administration; format: in vivo, Wistar rats
Description: After fasting overnight, 10- to 11-week old Wistar male rats were anesthetized with Nembutal, and sodium L-arabonate (0.5 mmol/kg) was administered through the femoral vein of each rat. Blood was sampled through the carotid artery as time elapsed, whereby the L-arabonic acid level was determined. Blood collection was performed by means of a heparin-treated capillary before administration and 5 min, 15 min, 30 min, and 1 hour after administration.
as §1

O=C(O)[C@H](O)[C@@H](O)[C@H](O)[C@H](O)CO [D-gluconic acid]
Dissolving of calcium oxalate calculi [1]: not to dissolve
Dissolving of calcium phosphate calculi and magnesium phosphate calculi [2]: dissolve

O=C(O)[C@H](O)[C@@H](O)[C@@H](O)CO [L-Arabonic acid, L-arabonic acid]
LD50 [3]: about 10 g/kg
Metabolism in the body ([4]; rat, in vivo): not metabolized in the body and is immediately excreted to urine
Portion of the absorbed L-arabonic acid excreted to urine ([4]; rat, in vivo): ~100%

O=C([O-])[C@H](O)[C@@H](O)[C@H](O)[C@H](O)CO.[Na+] [Sodium D-gluconate, sodium D-gluconate]
Blood D-gluconic acid level ([5]; rats, 0.5 mmol/kg i.v.): considerably low
Metabolism in the body [4]: a large portion thereof is thought to be metabolized and consumed in the body
Percent urine excretion (24 hours) [4]: 9.8 ± 9.76%
Percent urine excretion (24 hours) ([4]; listed as sodium D-gluconate): about 10%

O=C([O-])[C@H](O)[C@@H](O)[C@@H](O)CO.[Na+] [Sodium L-arabonate, sodium L-arabonate]
Time at which blood level decreased to about the half value ([5]; rat, in vivo, iv): 22 min
